MIC data for 14 compounds are collected here from ChEMBL document CHEMBL3804786, “Novel 1,3-thiazolidin-4-one derivatives as promising anti-Candida agents endowed with anti-oxidant and chelating properties” (Eur J Med Chem, 2016).

In brackets after ≈: the same amount, converted by molar mass.

One assay concerns Staphylococcus aureus. Nature of the assay: Antibacterial activity against Staphylococcus aureus clinical isolate after 18 to 22 hrs by broth microdilution method. Format: functional. Background: Broth dilution looks for growth in wells or tubes with falling amounts of substance.
Another assay relates to Staphylococcus warneri. Nature of the assay: Antibacterial activity against Staphylococcus warneri clinical isolate after 18 to 22 hrs by broth microdilution method. The assay is classed as functional.
A further assay has as its system Enterococcus faecalis. The assay can be described thus: Antibacterial activity against Streptococcus faecalis clinical isolate after 18 to 22 hrs by broth microdilution method. The assay is classed as functional.
The next assay has as its system Escherichia coli. Nature of the assay: Antibacterial activity against Escherichia coli after clinical isolate 18 to 22 hrs by broth microdilution method. Format: functional.
For the next assay, the system named is Proteus mirabilis. Nature of the assay: Antibacterial activity against Proteus mirabilis clinical isolate after 18 to 22 hrs by broth microdilution method. Format: functional.
For a further assay, the system named is Enterobacter sp. The assay can be described thus: Antibacterial activity against Enterobacter spp. clinical isolate after 18 to 22 hrs by broth microdilution method. Format: functional.
The test system of a further assay is Klebsiella oxytoca. The assay can be described thus: Antibacterial activity against Klebsiella oxytoca clinical isolate after 18 to 22 hrs by broth microdilution method. Format: functional.
A further assay relates to Candida albicans. The assay can be described thus: Antifungal activity against Candida albicans clinical isolate after 24 hrs by broth microdilution method. Format: functional.
The subject of another assay is Nakaseomyces glabratus. Nature of the assay: Antifungal activity against Candida glabrata clinical isolate after 24 hrs by broth microdilution method. Format: functional.
A further assay has as its system Candida tropicalis. Nature of the assay: Antifungal activity against Candida tropicalis clinical isolate after 24 hrs by broth microdilution method. Format: functional.
The next assay concerns Pichia kudriavzevii. Nature of the assay: Antifungal activity against Candida krusei clinical isolate after 24 hrs by broth microdilution method. Format: functional.
In another assay the test system is Candida parapsilosis. The assay can be described thus: Antifungal activity against Candida parapsilosis clinical isolate after 24 hrs by broth microdilution method. The note with it: Lodderomyces parapsilosis. The assay is classed as functional.
The next assay has as its system [Candida] sake. The assay can be described thus: Antifungal activity against Candida sake clinical isolate after 24 hrs by broth microdilution method. Format: functional. The note with it: Fermentozyma sake.
The subject of assay [1] is Streptococcus sp. (viridans group). The assay can be described thus: Antibacterial activity against Streptococcus alpha-hemolyticus clinical isolate after 18 to 22 hrs by broth microdilution method.

As to `CC(C)=N/N=C1\SCC(=O)N1Cc1ccc(Cl)cc1`, the MIC against Staphylococcus aureus, with Staphylococcus warneri, with Enterococcus faecalis, with Escherichia coli, with Proteus mirabilis and in the assay on Enterobacter sp. was over 256 µg/mL throughout. Besides, the MIC (as a rule, the lowest concentration found to suppress growth) in the assay with Klebsiella oxytoca is over 256 µg/mL; with Candida albicans, 4 µg/mL (≈ 13.5 µM); against Nakaseomyces glabratus, 2 µg/mL (≈ 6.76 µM); against Candida tropicalis, 8 µg/mL (≈ 27 µM); in the assay with Pichia kudriavzevii it was 8 µg/mL (≈ 27 µM); against Candida parapsilosis, 2 µg/mL (≈ 6.76 µM). The MIC in assay [Candida] sake is 4 µg/mL (≈ 13.5 µM); in assay [1] it was over 256 µg/mL.

Turning to `C/C(=N\N=C1/SCC(=O)N1Cc1ccccc1Cl)c1cccs1`, the MIC against Staphylococcus aureus, in the assay on Staphylococcus warneri, with Enterococcus faecalis, against Escherichia coli, with Proteus mirabilis and in the assay on Enterobacter sp. was over 256 µg/mL throughout. In addition, the MIC in the assay on Klebsiella oxytoca is over 256 µg/mL; against Candida albicans, 4 µg/mL (≈ 11 µM); against Nakaseomyces glabratus, 4 µg/mL (≈ 11 µM); against Candida tropicalis it was 2 µg/mL (≈ 5.5 µM); in the assay on Pichia kudriavzevii, 8 µg/mL (≈ 22 µM); against Candida parapsilosis, 8 µg/mL (≈ 22 µM). Further, the MIC in assay [Candida] sake is 8 µg/mL (≈ 22 µM); in [1], over 256 µg/mL.

Turning to `CC(C)=N/N=C1\SCC(=O)N1Cc1ccccc1Cl`, the MIC with Staphylococcus aureus, against Staphylococcus warneri, against Enterococcus faecalis, against Escherichia coli, against Proteus mirabilis and against Enterobacter sp. was over 256 µg/mL each time. The MIC is over 256 µg/mL in the assay with Klebsiella oxytoca; 2 µg/mL (≈ 6.76 µM) against Candida albicans; 2 µg/mL (≈ 6.76 µM) in the assay with Nakaseomyces glabratus; 16 µg/mL (≈ 54.1 µM) against Candida tropicalis; 8 µg/mL (≈ 27 µM) against Pichia kudriavzevii; 8 µg/mL (≈ 27 µM) with Candida parapsilosis. Also, the MIC in [Candida] sake is 2 µg/mL (≈ 6.76 µM); in assay [1] it was over 256 µg/mL.

On to `O=C1CS/C(=N\N=C2CCCC2)N1Cc1ccc(F)cc1`, for which the MIC in the assay with Staphylococcus aureus, against Staphylococcus warneri, in the assay on Enterococcus faecalis, in the assay with Escherichia coli, in the assay with Proteus mirabilis and with Enterobacter sp. was over 256 µg/mL each time. Moreover, the MIC against Klebsiella oxytoca was over 256 µg/mL; against Candida albicans it was 8 µg/mL (≈ 26.2 µM); against Nakaseomyces glabratus it was 4 µg/mL (≈ 13.1 µM); with Candida tropicalis, 16 µg/mL (≈ 52.4 µM); with Pichia kudriavzevii, 8 µg/mL (≈ 26.2 µM); with Candida parapsilosis it was 2 µg/mL (≈ 6.55 µM). The MIC is 8 µg/mL (≈ 26.2 µM) in [Candida] sake and over 256 µg/mL in [1].

For `CC(C)=N/N=C1\SCC(=O)N1Cc1cccc(Cl)c1`, the MIC against Staphylococcus aureus, in the assay with Staphylococcus warneri, in the assay on Enterococcus faecalis, with Escherichia coli, against Proteus mirabilis and in the assay on Enterobacter sp. was over 256 µg/mL each time. Moreover, the MIC is over 256 µg/mL against Klebsiella oxytoca; 8 µg/mL (≈ 27 µM) with Candida albicans; 4 µg/mL (≈ 13.5 µM) against Nakaseomyces glabratus; 2 µg/mL (≈ 6.76 µM) with Candida tropicalis; 2 µg/mL (≈ 6.76 µM) in the assay on Pichia kudriavzevii; 4 µg/mL (≈ 13.5 µM) in the assay on Candida parapsilosis. Further, the MIC in assay [Candida] sake was 4 µg/mL (≈ 13.5 µM); in assay [1], over 256 µg/mL.

Regarding `O=C1CS/C(=N\N=C2CCCC2)N1Cc1ccccc1Cl`, the MIC in the assay on Staphylococcus aureus, in the assay with Staphylococcus warneri, against Enterococcus faecalis, in the assay on Escherichia coli, in the assay with Proteus mirabilis and in the assay with Enterobacter sp. was over 256 µg/mL in each case. Further, the MIC in the assay with Klebsiella oxytoca was over 256 µg/mL; in the assay with Candida albicans, 2 µg/mL (≈ 6.21 µM); in the assay with Nakaseomyces glabratus, 4 µg/mL (≈ 12.4 µM); with Candida tropicalis, 4 µg/mL (≈ 12.4 µM); against Pichia kudriavzevii it was 8 µg/mL (≈ 24.9 µM); with Candida parapsilosis, 8 µg/mL (≈ 24.9 µM). Further, the values for the MIC in [Candida] sake and in assay [1] were 2 µg/mL (≈ 6.21 µM) and over 256 µg/mL, respectively.

For `O=C1CS/C(=N\N=C2CCCC2)N1Cc1cccc(Cl)c1`, the MIC against Staphylococcus aureus, in the assay on Staphylococcus warneri, against Enterococcus faecalis, with Escherichia coli, against Proteus mirabilis and against Enterobacter sp. was over 256 µg/mL each time. Also, the MIC against Klebsiella oxytoca is over 256 µg/mL; against Candida albicans it was 4 µg/mL (≈ 12.4 µM); in the assay on Nakaseomyces glabratus, 4 µg/mL (≈ 12.4 µM); in the assay on Candida tropicalis, 8 µg/mL (≈ 24.9 µM); with Pichia kudriavzevii it was 16 µg/mL (≈ 49.7 µM); with Candida parapsilosis, 4 µg/mL (≈ 12.4 µM). In addition, the MIC in [Candida] sake is 2 µg/mL (≈ 6.21 µM); in assay [1], over 256 µg/mL.

On to `C/C(=N\N=C1/SCC(=O)N1Cc1ccccc1Cl)c1ccccn1`, for which the MIC in the assay with Staphylococcus aureus, in the assay with Staphylococcus warneri, against Enterococcus faecalis, with Escherichia coli, against Proteus mirabilis and with Enterobacter sp. was over 256 µg/mL throughout. The MIC against Klebsiella oxytoca is over 256 µg/mL; in the assay with Candida albicans, 4 µg/mL (≈ 11.1 µM); against Nakaseomyces glabratus, 4 µg/mL (≈ 11.1 µM); with Candida tropicalis, 2 µg/mL (≈ 5.57 µM); against Pichia kudriavzevii, 4 µg/mL (≈ 11.1 µM); in the assay with Candida parapsilosis, 8 µg/mL (≈ 22.3 µM). The MIC was 4 µg/mL (≈ 11.1 µM) in assay [Candida] sake and over 256 µg/mL in assay [1].

In the case of `C[C@@H]1[C@H](O)[C@@H](C)/C=C/C=C/C=C/C=C/C=C/C=C/C=C/[C@H](O[C@@H]2O[C@H](C)[C@@H](O)[C@H](N)[C@@H]2O)C[C@@H]2O[C@](O)(C[C@@H](O)C[C@@H](O)[C@H](O)CC[C@@H](O)C[C@@H](O)CC(=O)O[C@H]1C)C[C@H](O)[C@H]2C(=O)O` [AMPHOTERICIN B], the MIC with Candida albicans is 4 µg/mL (≈ 4.33 µM); in the assay on Nakaseomyces glabratus, 4 µg/mL (≈ 4.33 µM); in the assay on Candida tropicalis it was 2 µg/mL (≈ 2.16 µM); in the assay with Pichia kudriavzevii it was 4 µg/mL (≈ 4.33 µM); in the assay with Candida parapsilosis it was 2 µg/mL (≈ 2.16 µM); in assay [Candida] sake, 2 µg/mL (≈ 2.16 µM).

On to `CC(C)(O/N=C(\C(=O)N[C@@H]1C(=O)N2C(C(=O)[O-])=C(C[n+]3ccccc3)CS[C@H]12)c1csc(N)n1)C(=O)O` [CEFTAZIDIME], for which the MIC came out at 2 µg/mL (≈ 3.66 µM) against Staphylococcus aureus; 4 µg/mL (≈ 7.32 µM) with Staphylococcus warneri; 4 µg/mL (≈ 7.32 µM) against Enterococcus faecalis; 4 µg/mL (≈ 7.32 µM) in the assay on Escherichia coli; 8 µg/mL (≈ 14.6 µM) against Proteus mirabilis; 8 µg/mL (≈ 14.6 µM) with Enterobacter sp.. In addition, the MIC against Klebsiella oxytoca came out at 8 µg/mL (≈ 14.6 µM); in assay [1], 4 µg/mL (≈ 7.32 µM).

Take `OC(Cn1cncn1)(Cn1cncn1)c1ccc(F)cc1F` [FLUCONAZOLE]: the MIC (in the assay with Candida albicans; in the assay on Nakaseomyces glabratus; with Candida tropicalis; against Pichia kudriavzevii; against Candida parapsilosis; in assay [Candida] sake) was 2 µg/mL (≈ 6.53 µM) each time.

Consider `CC(=O)N1CCN(c2ccc(OCC3COC(Cn4ccnc4)(c4ccc(Cl)cc4Cl)O3)cc2)CC1` (stereo not given) [KETOCONAZOLE], for which the MIC against Candida albicans was 2 µg/mL (≈ 3.76 µM); against Nakaseomyces glabratus it was 2 µg/mL (≈ 3.76 µM); with Candida tropicalis, 2 µg/mL (≈ 3.76 µM); with Pichia kudriavzevii, 4 µg/mL (≈ 7.53 µM); in the assay with Candida parapsilosis, 2 µg/mL (≈ 3.76 µM); in assay [Candida] sake it was 4 µg/mL (≈ 7.53 µM).

`Clc1ccc(COC(Cn2ccnc2)c2ccc(Cl)cc2Cl)c(Cl)c1` (stereo not given) [MICONAZOLE]: the MIC with Candida albicans came out at 2 µg/mL (≈ 4.81 µM); against Nakaseomyces glabratus it was 4 µg/mL (≈ 9.61 µM); in the assay with Candida tropicalis, 2 µg/mL (≈ 4.81 µM); in the assay on Pichia kudriavzevii, 4 µg/mL (≈ 9.61 µM); against Candida parapsilosis it was 4 µg/mL (≈ 9.61 µM); in assay [Candida] sake, 2 µg/mL (≈ 4.81 µM).

As to `Clc1ccc(C(Cn2ccnc2)OCc2ccsc2Cl)c(Cl)c1` (stereo not given) [TIOCONAZOLE], the MIC worked out at 8 µg/mL (≈ 20.6 µM) with Candida albicans; 4 µg/mL (≈ 10.3 µM) in the assay with Nakaseomyces glabratus; 8 µg/mL (≈ 20.6 µM) against Candida tropicalis; 8 µg/mL (≈ 20.6 µM) with Pichia kudriavzevii; 8 µg/mL (≈ 20.6 µM) against Candida parapsilosis; 4 µg/mL (≈ 10.3 µM) in assay [Candida] sake.
